{"source": "patent EP0203441A2", "about": "“Substituted benzoquinolizines, process for their preparation and their use as medicaments” (BAYER AG, priority 1985, dated 1986)", "tested_on": "ketaminanästhesierten Katze", "assay": "Effect on venous capacity (plethysmograph) and mean arterial pressure in the anaesthetised cat", "format": "in vivo", "conditions": "Dosis 0,1 mg/kg i.v., ketamine-anaesthetised cat", "source_text": "Die Wirkung der erfindungsgemäßen Stoffe auf die Venenkapazität wird an der narkotisierten Katze mittels eines Plethysmographen gemessen. Als Vergleich wird in jedem Versuch als Standardsubstanz Natrium-Nitroprussid untersucht."}
{"smiles": "CCOc1ccc2c(c1)CCN1CCC(Nc3ccccc3NC(C)=O)CC21", "note": "(single isomer, unassigned) [Beispiel 26]", "values": [{"measurement": "art.Mitteldruck", "value": "Ø"}]}
